The results in this text go back to PubChem BioAssay (NCI).

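These data come from cells grown in 96-well plates and exposed to compound for 48 hours at five concentrations. Abbreviation: GI50, concentration required for 50% inhibition of growth. TGI: total growth inhibition.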 Where a SMILES comes first, the peptide text is derived from it. Side-chain parts run from the residue outwards. The star is where a group is joined. Cbz = O=C(OCc1ccccc1)*; Boc = CC(C)(C)OC(=O)*

Among the test systems are SW-620 colon; NCI-H23 lung; SNB-19 CNS; NCI-H226 lung; OVCAR-8 ovarian; SNB-75 CNS; UACC-62 melanoma.
Experiment in all cases: NCI anticancer screen, dose series, 48 h

As for `O=S1(=O)OCCCOS(=O)(=O)C1(Br)Br`, the TGI in the test with SW-620 colon, with NCI-H23 lung, in the test on SNB-19 CNS, in the test on NCI-H226 lung, in the test with OVCAR-8 ovarian and with SNB-75 CNS was > 100 µM throughout. In addition, the TGI in the test on UACC-62 melanoma is > 100 µM.
With `C[C@@]12C[C@@H](c3ccccc3O1)N1Cc3ccccc3CSC1=N2`, the TGI in the test on SW-620 colon, in the test on NCI-H23 lung, in the test on SNB-19 CNS, with NCI-H226 lung, with OVCAR-8 ovarian and in the test on SNB-75 CNS was > 100 µM each time. The TGI in the test on UACC-62 melanoma is > 100 µM.
On to `CC(C)C1=C(Cc2ccccc2)C(=O)O/C1=C\c1ccc(O)c(Cl)c1`, for which the TGI in the test with SW-620 colon stood at 34.9 µM; in the test with NCI-H23 lung, 25.8 µM; with SNB-19 CNS it was 33.7 µM; in the test with NCI-H226 lung, 30.6 µM; in the test with OVCAR-8 ovarian it was 33.1 µM; in the test on SNB-75 CNS, 30.6 µM. The TGI in the test on UACC-62 melanoma worked out at 28 µM.
On to `CC(C)(C)OC(=O)NC(CCCCNC(=O)CNC(=O)OCc1ccccc1)C(=O)NC(CCCCNC(=O)CNC(=O)OCc1ccccc1)C(=O)NC(CCCCNC(=O)CNC(=O)OCc1ccccc1)C(=O)NC(CCCCNC(=O)CNC(=O)OCc1ccccc1)C(=O)O` (configuration not stated) (Boc-K([Gly-Cbz])K([Gly-Cbz])K([Gly-Cbz])K([Gly-Cbz])-OH; configuration not given here), for which the TGI in the test with SW-620 colon, in the test with NCI-H23 lung, in the test with SNB-19 CNS, in the test on NCI-H226 lung, in the test on OVCAR-8 ovarian and in the test on SNB-75 CNS was > 100 µM in each case. Also, the TGI with UACC-62 melanoma is > 100 µM.
Turning to `COc1cc(/C(=C2/O[C@@H]([C@H]3COC(C)(C)O3)[C@H]3OC(C)(C)O[C@@H]23)c2ccc3c(c2)OCO3)cc(OC)c1OC`, the GI50 is > 25 µM in the test on SW-620 colon; > 25 µM in the test on NCI-H23 lung; > 25 µM in the test on SNB-19 CNS; > 25 µM with NCI-H226 lung; > 25 µM with OVCAR-8 ovarian; 7.13 µM in the test on SNB-75 CNS. The GI50 in the test on UACC-62 melanoma was > 25 µM. Besides, the TGI with SW-620 colon, with NCI-H23 lung, in the test with SNB-19 CNS, in the test with NCI-H226 lung, in the test on OVCAR-8 ovarian and with SNB-75 CNS was > 25 µM in each case. Also, the TGI with UACC-62 melanoma is > 25 µM.
Consider `O=C1O[C@H]2C3C4CCC(C4[C@@H]2I)[C@H]13` (some centres not stated), for which the TGI with SW-620 colon, in the test on NCI-H23 lung, with SNB-19 CNS, in the test on NCI-H226 lung, in the test with OVCAR-8 ovarian and with SNB-75 CNS was > 100 µM throughout. Further, the TGI in the test with UACC-62 melanoma was > 100 µM.
Turning to `OC(C1CCCCCCCCCC1)C(O)C1CCCCCCCCCC1` (configuration not stated), the TGI with SW-620 colon, in the test on NCI-H23 lung, in the test with SNB-19 CNS, with NCI-H226 lung, in the test on OVCAR-8 ovarian and in the test on SNB-75 CNS was > 100 µM each time. The TGI in the test with UACC-62 melanoma is > 100 µM.
As to `O=S(c1ccc(Cl)cc1)c1ccccc1C1=NCCN1` (configuration not stated), the TGI in the test with SW-620 colon, in the test with NCI-H23 lung, with SNB-19 CNS, with NCI-H226 lung, in the test with OVCAR-8 ovarian and in the test with SNB-75 CNS was > 100 µM throughout. Further, the TGI with UACC-62 melanoma was > 100 µM.
As to `N#Cc1ccc2[nH]c3c(c2c1)CC(=O)Nc1ccccc1-3`, the TGI with SW-620 colon, in the test on NCI-H23 lung, with SNB-19 CNS, in the test with NCI-H226 lung, with OVCAR-8 ovarian and in the test on SNB-75 CNS was > 100 µM throughout. In addition, in the test with UACC-62 melanoma, the TGI is > 100 µM.
Regarding `COc1ccc([C@H]2c3cc4c(cc3OC(O)(CO)[C@H]2C(=O)O)OCO4)c(OC)c1` (some centres not stated) (tested in a mixture with another compound), the TGI with SW-620 colon, in the test on NCI-H23 lung, in the test with SNB-19 CNS, with NCI-H226 lung, in the test on OVCAR-8 ovarian and in the test on SNB-75 CNS was > 100 µM throughout. Moreover, the TGI in the test with UACC-62 melanoma was > 100 µM.
Consider `COc1ccc(C2C(C#N)=C(S)N(C3OC(CO)C(O)C(O)C3O)C(C)=C2C(C)=O)cc1` (configuration not stated), for which the TGI in the test on SW-620 colon, in the test with NCI-H23 lung, in the test with SNB-19 CNS, with NCI-H226 lung, with OVCAR-8 ovarian and in the test with SNB-75 CNS was > 100 µM each time. Besides, the TGI in the test with UACC-62 melanoma is > 100 µM.
Turning to `CN(/N=C/c1ccc(Cl)cc1)C1=NCCCCN1`, the TGI with SW-620 colon, in the test on NCI-H23 lung, with SNB-19 CNS, with NCI-H226 lung, in the test with OVCAR-8 ovarian and with SNB-75 CNS was > 100 µM throughout. Further, in the test on UACC-62 melanoma, the TGI is > 100 µM.
Regarding `CC(=O)OCC1OC(SC2=NC(=O)/C(=C/c3ccccc3)S2)C(OC(C)=O)C(OC(C)=O)C1OC(C)=O` (configuration not stated), the TGI with SW-620 colon is 74.1 µM; with NCI-H23 lung it was > 100 µM; with SNB-19 CNS it was > 100 µM; with NCI-H226 lung it was 95 µM; in the test on OVCAR-8 ovarian it was 31.7 µM; in the test with SNB-75 CNS it was 44.7 µM. The same compound registered a TGI with UACC-62 melanoma of 87.2 µM.
Turning to `COc1cc2c(c(OC)c1OC)-c1ccc(SC)c(=O)cc1[C@@H](NCc1cccc([N+](=O)[O-])c1)CC2`, the TGI with SW-620 colon is > 100 µM; with NCI-H23 lung, < 0.01 µM; with SNB-19 CNS it was > 100 µM; in the test with NCI-H226 lung it was < 0.01 µM; in the test with OVCAR-8 ovarian, 43.8 µM; with SNB-75 CNS, > 100 µM. In the test on UACC-62 melanoma, this compound showed a TGI of 17.8 µM.
Take `O=c1[nH]nc(Cc2ccc(Cl)cc2)n1/N=C/c1c[nH]c2ccccc12`: the TGI in the test with SW-620 colon, in the test with NCI-H23 lung, with SNB-19 CNS, in the test with NCI-H226 lung, in the test on OVCAR-8 ovarian and in the test on SNB-75 CNS was > 100 µM each time. Also, the TGI in the test on UACC-62 melanoma was > 100 µM.
